Literature values as cited in US8895061B2, “Compositions comprising carisoprodol and methods of use thereof” (Meda Pharmaceuticals Inc., priority 2007, dated 2014).

Columns and labels:
[1] = for influence of polymorphic debrisoquine hydroxylation on elimination: poor metabolizers of debrisoquine, single oral doses
[2] = in vivo

Row | Compound | influence of polymorphic debrisoquine hydroxylation on elimination [1] | mean serum clearance of meprobamate ([1]; poor metabolizers of mephenyloin compared with extensive metabolizers, single oral dose 400 mg meprobamate) | onset of action [2] | mean serum clearance of carisoprodol ([1]; poor metabolizers of mephenyloin compared with extensive metabolizers, single oral dose 700 mg carisoprodol)
1 | CCCC(C)(COC(N)=O)COC(N)=O [meprobamate] | did not influence the elimination | did not differ between the two groups |  | 
2 | CCCC(C)(COC(N)=O)COC(=O)NC(C)C (centres unmarked) [carisoprodol, N-isopropyl-2-methyl-2-propyl-1,3-propanediol dicarbamate] | did not influence the elimination |  | rapid | four times lower
